Test results published in patent US20130203649A1, “INHIBITORS OF TLR SIGNALING BY TARGETING TIR DOMAIN INTERFACES” (UNIVERSITY OF MARYLAND, BALTIMORE, priority 2012, published 2013).
No end group written: not given here.

Columns and labels:
TLR4 = test: LPS-induced STAT1-Y701 phosphorylation in macrophages (immunoblotting); assay type: cell-based, mouse; settings: 2 h after LPS
C57BL/6J mice = test: Survival after lethal LPS challenge in C57BL/6J mice; assay type: in vivo, mouse; settings: LPS 17.5 μg/g i.p.; peptide 10 nmol/g i.p. 1 h before
Protocol: FIG. 10. […] (A-E) C57BL/6J mice were injected i.p. with purified Escherichia coli K235 LPS (1 μg/g) or PBS. Peptides (10 nmol/g of animal weight) were injected i.p. (A, B, D, E) or i.v. (C) 1 h before (A, B, and C) or 30 min after (D, E) i.p. injection of LPS. Data in panels A and D show plasma IL-6 and TNF-α levels measured 2 h after LPS challenge. Peptide TM8/9 was used as a non-inhibitory control peptide. Data represent the means±s.e.m. for 6-12 blood samples obtained in at least three independent experiments. *p<0.01. (F, G) C57BL/6J mice were challenged i.p. with a lethal LPS dose (17.5 μg/g). Peptides (10 nmol/g) were injected i.p. 1 h before LPS challenge. […] The statistical significance of changes in mortality and survival time was determined by the Mantel Cox log-rank test using GraphPad Prism software (Version 5.04). *p<0.01.
Eight-week-old C57BL/6J mice were injected with 1 or 17.5 μg/g animal weight of E. coli K235 LPS i.p. Peptides reconstituted in PBS were administered i.p. or i.v. Control groups received equivalent volume of solvent (PBS). The blood samples were collected 1, 2, 4, and 8 h, or 2, 8, and 24 h after LPS challenge. The plasma samples were obtained and kept frozen until TNF-α and IL-6 were measured by ELISA. Survival of animals was monitored every 6-16 h after LPS challenge. All animal experiments were carried out with institutional approval.
We next studied whether inhibitory peptides protect mice from a lethal LPS challenge. TR6, a previously described inhibitory peptide derived from the third helical region of TRAP (30), was also included in this study as an additional control. C57BL/6J mice were injected i.p. with 17.5 μg/g LPS. This dose induced 100% mortality in the control group (FIG. 10F). […] The peptide-treated survivors appeared active and healthy at the time the experiments were terminated, 7 d after injection of LPS.

Row | Sequence | LPS-induced STAT1-Y701 phosphorylation (TLR4) | Survival after lethal LPS challenge (C57BL/6J mice)
1 | RQIKIWFQNRRMKWKKCLQDAIDHSGFT [TF5] | inhibit | 
2 | RQIKIWFQNRRMKWKKPGFLRDPWCKYQML [TR6] |  | improved animal survival comparably to TM6
